Assay results as given in the CheMixHub ionic liquid set.

Assay: xn = mol fraction of the nth substance listed

OC[C@H]1O[C@@](CO)(O[C@H]2O[C@H](CO)[C@@H](O)[C@H](O)[C@H]2O)[C@@H](O)[C@@H]1O + CCCC[N+](C)(CCCC)CCCC.[Cl-] + O
viscosity [mPa·s], 101.3 kPa
Conditions | x1 = 0.0003585, x2 = 0 | x1 = 0.0007185, x2 = 0 | x1 = 0.001078, x2 = 0 | x1 = 0.00144, x2 = 0 | x1 = 0.001799, x2 = 0 | x1 = 0.002163, x2 = 0 | x1 = 0.002507, x2 = 0
293.15 K | 1.016 | 1.038 | 1.059 | 1.081 | 1.094 | 1.112 | 1.133
298.15 K | 0.906 | 0.921 | 0.935 | 0.957 | 0.972 | 0.987 | 1.006
303.15 K | 0.807 | 0.817 | 0.83 | 0.847 | 0.861 | 0.878 | 0.891
308.15 K | 0.725 | 0.733 | 0.745 | 0.759 | 0.772 | 0.786 | 0.8
313.15 K | 0.657 | 0.664 | 0.674 | 0.683 | 0.697 | 0.71 | 0.721

CC(=O)[O-].[NH4+] + CC(=O)[O-].CC[n+]1ccn(C)c1
101 kPa
Conditions | electrical conductivity [S/m] | viscosity [mPa·s]
298.15 K, x1 = 0.4491 | 0.0734 | 1020
308.15 K, x1 = 0.328 | 0.215 | 273
308.15 K, x1 = 0.4491 | 0.148 | 458
313.15 K, x1 = 0.0999 | 0.494 | 76.2
313.15 K, x1 = 0.1703 | 0.41 | 101.3
313.15 K, x1 = 0.328 | 0.286 | 197
318.15 K, x1 = 0.2498 | 0.449 | 106.6
318.15 K, x1 = 0.328 | 0.371 | 144.6

CCCCCCCC[n+]1ccccc1.[Br-] + O
100 kPa
Conditions | electrical conductivity [S/m]
288.15 K, x1 = 0.0006303 | 0.31
288.15 K, x1 = 0.001206 | 0.47
288.15 K, x1 = 0.001745 | 0.62
288.15 K, x1 = 0.002301 | 0.78
288.15 K, x1 = 0.00309 | 0.98
288.15 K, x1 = 0.003806 | 1.12
288.15 K, x1 = 0.004431 | 1.22
288.15 K, x1 = 0.005002 | 1.29
288.15 K, x1 = 0.005537 | 1.35
288.15 K, x1 = 0.006018 | 1.4
288.15 K, x1 = 0.006445 | 1.44
288.15 K, x1 = 0.006854 | 1.48
288.15 K, x1 = 0.007227 | 1.51
288.15 K, x1 = 0.007547 | 1.54
293.15 K, x1 = 0.0006303 | 0.34
293.15 K, x1 = 0.001206 | 0.54
293.15 K, x1 = 0.001745 | 0.7
293.15 K, x1 = 0.002301 | 0.88
293.15 K, x1 = 0.00309 | 1.11
293.15 K, x1 = 0.003788 | 1.27
293.15 K, x1 = 0.004431 | 1.39
293.15 K, x1 = 0.005002 | 1.47
293.15 K, x1 = 0.00552 | 1.54
293.15 K, x1 = 0.006 | 1.59
293.15 K, x1 = 0.006445 | 1.65
293.15 K, x1 = 0.006837 | 1.69
293.15 K, x1 = 0.00721 | 1.73
293.15 K, x1 = 0.007547 | 1.76
298.15 K, x1 = 0.0006303 | 0.38
298.15 K, x1 = 0.001206 | 0.6
298.15 K, x1 = 0.001745 | 0.79
298.15 K, x1 = 0.002301 | 0.99
298.15 K, x1 = 0.00309 | 1.25
298.15 K, x1 = 0.003788 | 1.43
298.15 K, x1 = 0.004431 | 1.57
298.15 K, x1 = 0.005002 | 1.67
298.15 K, x1 = 0.00552 | 1.75
298.15 K, x1 = 0.006 | 1.81
298.15 K, x1 = 0.006428 | 1.87
298.15 K, x1 = 0.006837 | 1.93
298.15 K, x1 = 0.00721 | 1.98
298.15 K, x1 = 0.007529 | 2.02
303.15 K, x1 = 0.0006303 | 0.45
303.15 K, x1 = 0.001206 | 0.67
303.15 K, x1 = 0.001745 | 0.88
303.15 K, x1 = 0.002301 | 1.1
303.15 K, x1 = 0.00309 | 1.39
303.15 K, x1 = 0.003788 | 1.6
303.15 K, x1 = 0.004413 | 1.75
303.15 K, x1 = 0.004985 | 1.87
303.15 K, x1 = 0.005502 | 1.98
303.15 K, x1 = 0.005983 | 2.07
303.15 K, x1 = 0.006428 | 2.14
303.15 K, x1 = 0.006819 | 2.21
303.15 K, x1 = 0.007192 | 2.27
303.15 K, x1 = 0.007529 | 2.32
308.15 K, x1 = 0.0006303 | 0.48
308.15 K, x1 = 0.001206 | 0.73
308.15 K, x1 = 0.001745 | 0.97
308.15 K, x1 = 0.002283 | 1.21
308.15 K, x1 = 0.003072 | 1.54
308.15 K, x1 = 0.00377 | 1.77
308.15 K, x1 = 0.004413 | 1.98
308.15 K, x1 = 0.004985 | 2.13
308.15 K, x1 = 0.005502 | 2.23
308.15 K, x1 = 0.005983 | 2.33
308.15 K, x1 = 0.00641 | 2.42
308.15 K, x1 = 0.006819 | 2.49
308.15 K, x1 = 0.007192 | 2.56
308.15 K, x1 = 0.007512 | 2.62
